# Test results: patent publication US12180184B2, “Pyrimidopyrazolone derivative as Wee1 inhibitor and use thereof” (Wuxi Biocity Biopharmaceutics Co., Ltd., priority 2018, dated 2024)
# What was measured:
# Wee1 = target: T1, Wee1 (Homo sapiens, UniProt P30291); assay: In vitro enzyme inhibitory activity, Wee1 kinase radiometric ([33P]-ATP) assay at Eurofins; format: biochemical; details: in vitro enzymatic activity; 40 min at room temperature, peptide substrate 500 μM
# T1 construct: Eurofins
# Procedure: The compounds used for experiments were all prepared in-house, and their chemical names and structural formulas were shown in the preparation examples for each compound. The experimental tests were carried out in Eurofins, which provided the experimental results.
# In the Wee1 reaction system, 20 mM Tris-HCl, pH 8.5, 0.2 mM EDTA, 500 μM polypeptide substrate ([…]) (Sequence ID No. 1), 10 mM magnesium acetate and a certain concentration of […] (intensity of about 500 cpm/pmol) were added. Addition of Mg^2+ and ATP mixed solution initiated the reaction. Incubation was performed at room temperature for 40 min and 3% phosphate buffer was added to terminate the reaction. 10 μL of the reaction solution was filtered on a continuous filter P30, and washed with 75 mM phosphate buffer three times, and washed with methanol once, 5 min for each time. After drying, the scintillation counting was used to read the values.
# [1] = tested on: Human pancreatic cancer PC-07-0049 subcutaneously transplanted tumor; assay: In vivo pharmacodynamics study on human pancreatic cancer PC-07-0049 subcutaneously transplanted tumor model in nude mice; parameters: species or system BALB/c nude mice; details: for TGI (%): PC-07-0049 tumor in BALB/c nude mice
# From the text: Procedures: The selected experimental animals were BALB/c nude mice (6 animals per group), 6-8 weeks old, weigh 16-21 grams.
# The establishment of the Human pancreatic carcinoma PC-07-0049 model was originally derived from surgically excised clinical samples, which was defined as the P0 generation after implantation in nude mice. The implantation of the tumor tissue of P0 generation into the next generation was defined as the P1 generation. The implantation was continued in nude mice in this way. The tumor of FP3 was revived through the P2 generation. The next generation generated by the FP3 generation was defined as FP4, and so on. The tumor tissue of the FP5 generation will be used for the drug efficacy test.
# The PC-07-0049 FP5 tumor tissue was cut into small pieces (20-30 mm^3) after removing the necrotic tissue and was inoculated subcutaneously on the right back of each nude mouse. When the average tumor volume reached about 193 mm^3, according to the tumor volume, the animals were divided into random groups and administered.
# The experimental index was to investigate whether tumor growth was inhibited, delayed or cured. The diameters of the tumors were measured with a vernier caliper twice a week. The tumor suppression efficacy of the compound was evaluated by TGI (%) or the relative tumor proliferation rate T/C (%). TGI (%) reflects the tumor growth inhibition rate. Calculation of TGI (%): TGI (%)=[(1−(Average tumor volume at the end of a treatment group−average tumor volume at the beginning of the treatment group))/(Average tumor volume at the end of treatment in the solvent control group−the average tumor volume at the beginning of treatment in the solvent control group)]×100%.
# T1 sequence (P30291 whole entry): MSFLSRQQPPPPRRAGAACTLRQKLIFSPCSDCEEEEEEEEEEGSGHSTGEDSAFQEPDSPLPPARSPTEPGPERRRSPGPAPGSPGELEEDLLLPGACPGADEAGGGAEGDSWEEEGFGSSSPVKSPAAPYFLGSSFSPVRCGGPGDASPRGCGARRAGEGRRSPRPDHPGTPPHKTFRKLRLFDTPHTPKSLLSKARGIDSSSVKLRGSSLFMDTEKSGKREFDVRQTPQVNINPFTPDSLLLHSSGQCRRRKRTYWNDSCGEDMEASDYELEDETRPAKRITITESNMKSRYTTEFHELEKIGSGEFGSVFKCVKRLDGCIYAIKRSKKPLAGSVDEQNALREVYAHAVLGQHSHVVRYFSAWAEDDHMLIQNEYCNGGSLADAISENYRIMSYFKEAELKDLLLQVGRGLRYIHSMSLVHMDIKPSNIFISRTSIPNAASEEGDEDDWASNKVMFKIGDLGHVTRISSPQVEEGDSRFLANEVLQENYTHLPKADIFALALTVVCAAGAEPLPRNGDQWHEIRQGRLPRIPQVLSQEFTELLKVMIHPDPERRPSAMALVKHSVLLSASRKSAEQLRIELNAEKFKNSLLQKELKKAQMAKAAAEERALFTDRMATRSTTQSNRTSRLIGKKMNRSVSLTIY
SMILES,IC50 (Wee1) [nM],further results
C/C1=C/CC[C@@](C)(O)c2cccc(n2)-n2c3nc(Nc4ccc(N5CCN(C)CC5)cc4)ncc3c(=O)n2C1 [Compound 1],130,–
CN1CCN(c2ccc(Nc3ncc4c(=O)n5n(c4n3)-c3cccc(n3)[C@](C)(O)CC/C=C(/F)C5)cc2)CC1 [Compound 3],28,"inhibitory effect on mouse tumor (in words) ([1]; combination of compound 3 and gemcitabine compared with gemcitabine alone, conclusion drawn from Table 2): significantly improve the inhibitory effect on mouse tumor; TGI (%) ([1]; compound 3 50 mg/kg once per day in combination with gemcitabine 20 mg/kg twice per week): 102%"
CN1CCN(c2ccc(Nc3ncc4c(=O)n5n(c4n3)-c3cccc(n3)[C@@](C)(O)CC/C=C(/F)C5)cc2)CC1 [Compound 4],110,–
"Nc1ccn([C@@H]2O[C@H](CO)[C@@H](O)C2(F)F)c(=O)n1 [Gemcitabine, reference compound]",–,"TGI (%) ([1]; gemcitabine alone, 20 mg/kg twice per week): 58%"

# Second part, led by results:
IC50 (Wee1) [nM],SMILES,further results
37,CN1CCC(n2ccc3cc(Nc4ncc5c(=O)n6n(c5n4)-c4cccc(n4)[C@](C)(O)CC/C=C(/F)C6)ccc32)CC1 [Compound 2],–
43,CN1CCN(c2ccc(Nc3ncc4c(=O)n5n(c4n3)-c3cccc(n3)[C@](C)(O)CC/C=C(\F)C5)cc2)CC1 [Compound 5],–
